The values that follow come from ChEMBL document CHEMBL1649100, “N-3 Hydroxylation of Pyrimidine-2,4-diones Yields Dual Inhibitors of HIV Reverse Transcriptase and Integrase” (ACS Med Chem Lett, 2011).

Molecules are shown by their SMILES. A value given as a limit tells only on which side of the number the result lay.

Series [1] can be described thus: Therapeutic index, ratio of CC50 for human CEM-SS cells to EC50 for HIV1 3B. The series is classed as cell-based. Conditions: read-out: Ratio CC50/EC50.
Series [2] is described as follows: Inhibition of HIV integrase 3' processing activity expressed in Escherichia coli. More on the design: species or system Human immunodeficiency virus.
In series [3] the target is Human immunodeficiency virus type 1 reverse transcriptase (Human immunodeficiency virus 1, UniProt Q72547). The series can be described thus: Inhibition of HIV1 reverse transcriptase.
The nature of series [4]: Inhibition of HIV integrase strand transfer activity expressed in Escherichia coli. More on the design: species or system Human immunodeficiency virus.
Series [5] concerns Human immunodeficiency virus 1. The series can be described thus: Antiviral activity against HIV1 3B infected in human CEM-SS cells assessed as inhibition of viral replication after 6 days by MTS assay. The series is classed as functional, organism-based. Particulars: Human immunodeficiency virus 1, 3B, 144 h. A general note: Tetrazolium assays rely on reduction of a dye to a coloured formazan, in cell work by metabolically active cells.

Series [6] can be described thus: Cytotoxicity in human CEM-SS cells after 6 days by MTS assay. The series is classed as cell-based.

As for `CC(C)c1c(Cc2ccccc2)n(COCc2ccccc2)c(=O)[nH]c1=O`, in series [1], the selectivity ratio was above 1500. For the same compound, the IC50 in series [2] was above 333 µM; in series [3], 0.04 µM; in series [4], above 333 µM. In addition, the EC50 in series [5] came out at 0.013 µM. The CC50 at 144 h in series [6] is above 20 µM.

Take `CCOCn1c(Cc2ccc(F)cc2)c(C(C)C)c(=O)n(O)c1=O`: the IC50 in series [2] is above 333 µM; in series [3], above 100 µM; in series [4], 105 µM. In series [5], the EC50 is above 10 µM.

`CCOCn1c(Cc2ccccc2)c(C(C)C)c(=O)n(O)c1=O`: the selectivity ratio in series [1] is above 4.7. The IC50 was above 333 µM in series [2], 13 µM in series [3] and 85 µM in series [4]. For the same compound, the concentration giving a half-maximal response (EC50) in series [5] is 4.3 µM. Moreover, the CC50 at 144 h in series [6] is above 20 µM.

On to `CC(C)c1c(Cc2ccccc2)n(COCc2ccc(F)cc2)c(=O)n(O)c1=O`, for which, in series [1], the selectivity ratio was above 830. The IC50 in series [2] is above 333 µM; in series [3], 0.17 µM; in series [4], 3.5 µM. The EC50 in series [5] worked out at 0.024 µM. In series [6], this compound yielded a half-maximal cytotoxic concentration (CC50) at 144 h above 20 µM.

For the compound `CC(C)c1c(Cc2ccc(F)cc2)n(COCc2ccc(F)cc2)c(=O)n(O)c1=O`, the IC50 in series [2] was above 333 µM; in series [3], above 100 µM; in series [4] it was 5.5 µM. In addition, the EC50 in series [5] was above 10 µM.

In the case of `CC(C)c1c(Cc2ccc(F)cc2)n(COCc2ccccc2)c(=O)n(O)c1=O`, the IC50 was above 333 µM in series [2], above 100 µM in series [3] and 7.3 µM in series [4]. Further, in series [5], the EC50 is above 10 µM.

On to `CC(C)c1c(Cc2ccccc2)n(COCc2ccccc2)c(=O)n(N)c1=O`, for which the results for the IC50 in series [2], in series [3] and in series [4] were above 333 µM, 1.5 µM and above 333 µM, respectively. Further, the EC50 in series [5] was above 10 µM.

As to `CCc1c(Cc2ccccc2)n(COCc2ccccc2)c(=O)n(O)c1=O`, the selectivity ratio in series [1] was above 18. The half-inhibitory concentration (IC50) is above 333 µM in series [2], 9.4 µM in series [3] and 8.2 µM in series [4]. Moreover, the EC50 in series [5] came to 1.1 µM. Besides, the CC50 at 144 h in series [6] was above 20 µM.

For the compound `CC(C)c1c(Cc2ccccc2)n(COCc2ccccc2)c(=O)n(O)c1=O`, the selectivity ratio in series [1] is above 2500. Further, the IC50 in series [2] was above 333 µM; in series [3], 6.2 µM; in series [4], 21 µM. Further, the EC50 in series [5] came to 0.008 µM. The same compound returned a cytotoxic concentration (CC50) at 144 h in series [6] above 20 µM.

Usually IC50 stands for the point on the concentration scale where inhibition reaches its midpoint. Broadly, the EC50 is the midpoint of the concentration-response curve. What is called CC50 is the concentration that lowers cell viability or growth by half. High values mean lower toxicity to the cells, low ones greater toxicity to the cells.
